The numbers were not newly measured in patent US11796546B2, “Methods for quantifying drug concentration in a prodrug composition” (GENZYME CORPORATION, priority 2019, dated 2023), which cites them from elsewhere.

The test system of data set [1] is type 2 diabetes mellitus patients.

Consider “HdSQGTFTSDLSKQK(γE-palmitate)ESKAAQDFIEWLKAGGPSSGAPPPS-NH2 [SAR425899]”, for which the in vivo clearance entry is reported as “rapid in vivo clearance”. In addition, the “glycemic control and weight loss” value in data set [1] was “facilitate glycemic control and weight loss”.
